The subject of one assay is P388. The experiment in a line: In vivo antitumor activity against mouse P388 cells assessed as increase in life span at 5 mg/kg, ip for 5 days. Format: functional.
The nature of assay [1]: Antitumor activity against human myeloid leukemia cells xenografted mouse at 3 mg/kg, iv for 14 days. Format: functional, Leukemia cell.
The test system of assay [2] is L1210. As to the kind of experiment: Cytotoxicity against mouse L1210 cells by MTT assay. Format: functional, cell-based. (Tetrazolium dyes change colour on reduction, which living cells bring about.)
In assay [3] the test system is Staphylococcus aureus. As to the kind of experiment: Antimicrobial activity against methicillin-resistant Staphylococcus aureus COL MB5393. Format: functional, organism-based.
The test system of assay [4] is L1210. The experiment in a line: Cytotoxicity against mouse L1210 cells assessed as cell lysis after 24 hrs by trypan blue assay. Format: functional, cell-based.
In assay [5] the test system is L1210. The experiment in a line: Cytotoxicity against mouse L1210 cells assessed as cell viability by trypan blue assay. Format: functional, cell-based.
In another assay the test system is Escherichia coli. As to the kind of experiment: Antimicrobial activity against Escherichia coli MB1418. Format: functional.
Another assay concerns Proteus vulgaris. As to the kind of experiment: Antimicrobial activity against Proteus vulgaris MB838. Format: functional.
Another assay has as its system Bacillus subtilis. As to the kind of experiment: Antimicrobial activity against Bacillus subtilis MB964. Format: functional.
Another assay relates to Enterococcus faecium. The experiment in a line: Antimicrobial activity against Enterococcus faecium MB5572. Format: functional.
In assay [6] the test system is Pectobacterium atrosepticum. The experiment in a line: Antimicrobial activity against Erwinia atroseptica MB1159. Format: functional.
In assay [7] the test system is Staphylococcus aureus. As to the kind of experiment: Antimicrobial activity against Staphylococcus aureus MB108. Format: functional.
A further assay concerns Pseudomonas aeruginosa. The experiment in a line: Antimicrobial activity against Pseudomonas aeruginosa MB2824. Format: functional.

≈ marks a conversion by molar mass, not a printed value. Calls of active or inactive are those of the source. The calls are words filed in the database; no cut-off is given here.

For the molecule `CC1=C2C(=C[C@@](C)(CO)[C@@H]2O)C(=O)[C@](C)(O)C12CC2`, in the assay with P388, the result was inactive.

`CC1=C2C(=O)C(C)(C)C=C2C(=O)[C@](C)(O)C12CC2` [DEHYDROILLUDIN M]: the Activity in assay [1] is recorded as 75%.

For `CC1=C2CC(C)(C)C=C2C(=O)[C@](C)(O)C12CC2` [DEOXYILLUDIN M], the Activity with P388 (route intraperitoneal) was 24%.

`COc1cccc2c1C(=O)c1c(O)c3c(c(O)c1C2=O)C[C@@](O)(C(=O)CO)C[C@@H]3O[C@H]1C[C@H](N)[C@H](O)[C@H](C)O1` [DOXORUBICIN]: the figures for the IC50 in the assay on L1210 [2], with Staphylococcus aureus [3] and in the assay with L1210 [5] were 0.2 µg/mL (≈ 0.368 µM), 16 µg/mL (≈ 29.4 µM) and less than 0.1 µg/mL, respectively. Besides, in the assay on L1210 [4], the result was inactive.

`C=C1C(=O)C2=C(C[C@](C)(C(=O)O)C2)[C@](C)(O)C12CC2` [ILLUDINIC ACID]: the MIC (commonly the least concentration at which growth counts as inhibited) with Escherichia coli was 125 µg/mL (≈ 477 µM); with Staphylococcus aureus [3], 16 µg/mL (≈ 61 µM); in the assay on Proteus vulgaris, more than 125 µg/mL; against Bacillus subtilis, 16 µg/mL (≈ 61 µM); against Enterococcus faecium, more than 125 µg/mL; in assay [6] it was more than 125 µg/mL. Moreover, the MIC was 1 µg/mL (≈ 3.81 µM) with Staphylococcus aureus [7] and more than 125 µg/mL in the assay on Pseudomonas aeruginosa. Further, the IC50 (usually the concentration at which inhibition is half-maximal) with L1210 [2] came out at 15 µg/mL (≈ 57.2 µM); in the assay on L1210 [5], 10 µg/mL (≈ 38.1 µM). In the assay with L1210 [4], the result was inactive.

Turning to `CN[C@H](CC(C)C)C(=O)N[C@H]1C(=O)N[C@@H](CC(N)=O)C(=O)N[C@H]2C(=O)N[C@H]3C(=O)N[C@H](C(=O)N[C@H](C(=O)O)c4cc(O)cc(O)c4-c4cc3ccc4O)[C@H](O)c3ccc(c(Cl)c3)Oc3cc2cc(c3O[C@@H]2O[C@H](CO)[C@@H](O)[C@H](O)[C@H]2O[C@H]2C[C@](C)(N)[C@H](O)[C@H](C)O2)Oc2ccc(cc2Cl)[C@H]1O` [VANCOMYCIN], the 50% inhibitory concentration (IC50) in the assay with L1210 [2] and with L1210 [5] was more than 1000 µg/mL in each case. Also, in the assay with L1210 [4], the result was inactive.
